{"source": "ChEMBL document CHEMBL5214910", "about": "“Rational Design of Dipicolylamine-Containing Carbazole Amphiphiles Combined with Zn2+ as Potent Broad-Spectrum Antibacterial Agents with a Membrane-Disruptive Mechanism” (J Med Chem, 2021)", "key": {"[1]": {"test_system": "Staphylococcus aureus", "test": "Antibacterial activity against Methicillin-resistant Staphylococcus aureus N315 assessed as inhibition of bacterial growth by measuring salt resistance incubated for 24 hrs in the presence of 12.5 ug/ml Zn2+ and 100 ug/ml Ca2+ by Muller hinton broth based dilution assay", "type": "functional"}, "[2]": {"test_system": "Acinetobacter baumannii", "test": "Antibacterial activity against Acinetobacter baumannii ATCC 17978 assessed as inhibition of bacterial growth by measuring salt resistance incubated for 24 hrs in the presence of 12.5 ug/ml Zn2+ and 3220 ug/ml Na+ by Muller hinton broth based dilution assay", "type": "functional"}, "[3]": {"test_system": "Acinetobacter baumannii", "test": "Antibacterial activity against Acinetobacter baumannii R2889 assessed as inhIbition of bacterial growth incubated for 24 hrs by Muller hinton broth based dilution assay", "type": "functional"}, "[4]": {"test": "Hemolytic activity in rabbit RBC incubated for 1 hrs by fluorescence based microplate reader assay", "type": "toxicity, cell-based, Oryctolagus cuniculus, Erythrocyte", "settings": "rabbit red blood cells (erythrocytes)"}, "[5]": {"test_system": "Acinetobacter baumannii", "test": "Antibacterial activity against Acinetobacter baumannii R2889 assessed as inhIbition of bacterial growth incubated for 24 hrs in the presence of 12.5 ug/mL Zn2+ by Muller hinton broth based dilution assay", "type": "functional"}, "[6]": {"test_system": "Escherichia coli", "test": "Antibacterial activity Escherichia coli ATCC 25922 assessed as inhibition of bacterial growth incubated for 24 hrs in the presence of 50 ug/mL Zn2+ by Muller hinton broth based dilution assay", "type": "functional"}, "[7]": {"test_system": "Escherichia coli", "test": "Antibacterial activity Escherichia coli ATCC 25922 assessed as inhibition of bacterial growth incubated for 24 hrs in the presence of 25 ug/mL Zn2+ by Muller hinton broth based dilution assay", "type": "functional"}, "[8]": {"test_system": "Escherichia coli", "test": "Antibacterial activity Escherichia coli ATCC 25922 assessed as inhibition of bacterial growth incubated for 24 hrs in the presence of 0.78 ug/mL Zn2+ by Muller hinton broth based dilution assay", "type": "functional"}, "[9]": {"test_system": "Pseudomonas aeruginosa", "test": "Antibacterial activity Pseudomonas aeruginosa ATCC 9027 assessed as inhibition of bacterial growth incubated for 24 hrs in the presence of 6.25 ug/mL Zn2+ by Muller hinton broth based dilution assay", "type": "functional"}, "[10]": {"test_system": "Pseudomonas aeruginosa", "test": "Antibacterial activity Pseudomonas aeruginosa ATCC 9027 assessed as inhibition of bacterial growth incubated for 24 hrs in the presence of 0.78 ug/mL Zn2+ by Muller hinton broth based dilution assay", "type": "functional"}, "[11]": {"test_system": "Pseudomonas aeruginosa", "test": "Antibacterial activity Pseudomonas aeruginosa ATCC 9027 assessed as inhibition of bacterial growth incubated for 24 hrs in the presence of 0.39 ug/mL Zn2+ by Muller hinton broth based dilution assay", "type": "functional"}, "[12]": {"test_system": "Staphylococcus aureus", "test": "Antibacterial activity against Methicillin-resistant Staphylococcus aureus NCTC10442 assessed as inhibition of bacterial growth incubated for 24 hrs in the presence of 25 ug/mL Zn2+ by Muller hinton broth based dilution assay", "type": "functional"}, "[13]": {"test_system": "Staphylococcus aureus", "test": "Antibacterial activity against Methicillin-resistant Staphylococcus aureus NCTC10442 assessed as inhibition of bacterial growth incubated for 24 hrs in the presence of 6.25 ug/mL Zn2+ by Muller hinton broth based dilution assay", "type": "functional"}, "[14]": {"test_system": "Staphylococcus aureus", "test": "Antibacterial activity against Staphylococcus aureus ATCC 29213 assessed as inhibition of bacterial growth incubated for 24 hrs in the presence of 3.125 ug/mL Zn2+ by Muller hinton broth based dilution assay", "type": "functional"}, "[15]": {"test_system": "Staphylococcus aureus", "test": "Antibacterial activity against Staphylococcus aureus ATCC 29213 assessed as inhibition of bacterial growth incubated for 24 hrs in the presence of 0.39 ug/mL Zn2+ by Muller hinton broth based dilution assay", "type": "functional"}, "[16]": {"test_system": "Staphylococcus aureus", "test": "Antibacterial activity against Staphylococcus aureus ATCC 29213 assessed as inhibition of bacterial growth by measuring salt resistance incubated for 24 hrs in the presence of 12.5 ug/ml Zn2+ and 3220 ug/ml Na+ by Muller hinton broth based dilution assay", "type": "functional"}, "[17]": {"test_system": "Staphylococcus aureus", "test": "Antibacterial activity against Methicillin-resistant Staphylococcus aureus NCTC10442 assessed as inhibition of bacterial growth by measuring salt resistance incubated for 24 hrs in the presence of 12.5 ug/ml Zn2+ and 100 ug/ml Ca2+ by Muller hinton broth based dilution assay", "type": "functional"}, "[18]": {"test_system": "Staphylococcus aureus", "test": "Antibacterial activity against Methicillin-resistant Staphylococcus aureus NCTC10442 assessed as inhibition of bacterial growth by measuring salt resistance incubated for 24 hrs in the presence of 12.5 ug/ml Zn2+ and 24.3 ug/ml Mg2+ by Muller hinton broth based dilution assay", "type": "functional"}, "[19]": {"test_system": "Escherichia coli", "test": "Antibacterial activity against Escherichia coli ATCC 25922 assessed as inhibition of bacterial growth by measuring salt resistance incubated for 24 hrs in the presence of 12.5 ug/ml Zn2+ and 175.5 ug/ml K+ by Muller hinton broth based dilution assay", "type": "functional"}, "[20]": {"test_system": "Escherichia coli", "test": "Antibacterial activity against Escherichia coli ATCC 25922 assessed as inhibition of bacterial growth by measuring salt resistance incubated for 24 hrs in the presence of 12.5 ug/ml Zn2+ and 100 ug/ml Ca2+ by Muller hinton broth based dilution assay", "type": "functional"}, "[21]": {"test": "Ratio of MIC for antibacterial activity against Escherichia coli ATCC 25922 to MIC for antibacterial activity against Escherichia coli ATCC 25922 in the presence of Zn2+", "type": "functional"}, "[22]": {"test": "Ratio of MIC for antibacterial activity against Acinetobacter baumannii ATCC 17978 to MIC for antibacterial activity against Acinetobacter baumannii ATCC 17978 in the presence of Zn2+", "type": "functional"}, "[23]": {"test": "Ratio of MIC for antibacterial activity against Acinetobacter baumannii R2889 to MIC for antibacterial activity against Acinetobacter baumannii R2889 in the presence of Zn2+", "type": "functional"}, "[24]": {"test_system": "Escherichia coli", "test": "Antibacterial activity against Escherichia coli ATCC 25922 assessed as log reduction in bacterial count at 4 times of MIC incubated for 1 hrs in the presence of 12.5 ug/ml Zn2+ by Muller hinton agar based time kill assay", "type": "functional"}, "[25]": {"test_system": "Staphylococcus aureus", "test": "Antibacterial activity against Staphylococcus aureus ATCC 29213 assessed as log reduction in bacterial count at 8 times of MIC incubated for 30 mins in the presence of 12.5 ug/ml Zn2+ by Muller hinton agar based time kill assay", "type": "functional", "settings": "0.5 h"}, "[26]": {"test_system": "Cell membrane", "test": "Induction of cell membrane […] in Staphylococcus aureus ATCC 29213 assessed as increase in fluorescence intensity at 2 times to 8 times of MIC measured for 1 hrs in the presence of 12.5 ug/ml Zn2+ by DiSC3 (5) dye based assay", "type": "subcellular"}, "[27]": {"test_system": "Lipopolysaccharide (LPS)", "test": "Displacement of BODIPY-TR-cadaverin from Pseudomonas aeruginosa Lipopolysaccharide at 2 times of MIC incubated for 30 mins by fluorescence based microplate reader analysis relative to control"}, "[28]": {"test_system": "Lipopolysaccharide (LPS)", "test": "Displacement of BODIPY-TR-cadaverin from Pseudomonas aeruginosa Lipopolysaccharide at 4 times of MIC incubated for 30 mins by fluorescence based microplate reader analysis relative to control"}, "[29]": {"test_system": "Lipopolysaccharide (LPS)", "test": "Displacement of BODIPY-TR-cadaverin from Pseudomonas aeruginosa Lipopolysaccharide at 8 times of MIC incubated for 30 mins by fluorescence based microplate reader analysis relative to control"}, "[30]": {"test": "Cytotoxicity against mouse NCTC clone 929 cells assessed as reduction in cell survival at 16 times to 32 times of MIC incubated for 24 hrs in the presence of 12.5 ug/ml of Zn2+ by CCK8 assay relative to control", "type": "toxicity, cell-based", "settings": "nctc clone 929, 24 h"}}, "note": "The source made the active and inactive calls. No cut-off for these calls is given here.", "data": [{"smiles": "CC(C)=CCn1c2ccccc2c2c(OCC(O)CN(Cc3ccccn3)Cc3ccccn3)cccc21", "note": "(stereo not given)", "values": [{"measurement": "MIC", "setting": "[1]", "value": 3.12, "unit": "µg/mL"}, {"measurement": "MIC", "setting": "[2]", "value": 0.78, "unit": "µg/mL"}, {"measurement": "MIC", "setting": "[3]", "value": 3.12, "unit": "µg/mL"}, {"measurement": "HC50 at 1 h", "setting": "[4]", "value": "> 200", "unit": "µg/mL"}, {"measurement": "MIC", "setting": "[5]", "value": 1.56, "unit": "µg/mL"}, {"measurement": "MIC", "setting": "[6]", "value": 1.56, "unit": "µg/mL"}, {"measurement": "MIC", "setting": "[7]", "value": 1.56, "unit": "µg/mL"}, {"measurement": "MIC", "setting": "[8]", "value": 6.25, "unit": "µg/mL"}, {"measurement": "MIC", "setting": "[9]", "value": 3.12, "unit": "µg/mL"}, {"measurement": "MIC", "setting": "[10]", "value": "> 50", "unit": "µg/mL"}, {"measurement": "MIC", "setting": "[11]", "value": "> 50", "unit": "µg/mL"}, {"measurement": "MIC", "setting": "[12]", "value": 0.78, "unit": "µg/mL"}, {"measurement": "MIC", "setting": "[13]", "value": 0.78, "unit": "µg/mL"}, {"measurement": "MIC", "setting": "[14]", "value": 3.12, "unit": "µg/mL"}, {"measurement": "MIC", "setting": "[15]", "value": 3.12, "unit": "µg/mL"}, {"measurement": "MIC", "setting": "[16]", "value": 1.56, "unit": "µg/mL"}, {"measurement": "MIC", "setting": "[17]", "value": 3.12, "unit": "µg/mL"}, {"measurement": "MIC", "setting": "[18]", "value": 1.56, "unit": "µg/mL"}, {"measurement": "MIC", "setting": "[19]", "value": 1.56, "unit": "µg/mL"}, {"measurement": "MIC", "setting": "[20]", "value": 6.25, "unit": "µg/mL"}, {"measurement": "Ratio", "setting": "[21]", "value": 2}, {"measurement": "Ratio", "setting": "[22]", "value": 2}, {"measurement": "Ratio", "setting": "[23]", "value": 2}, {"measurement": "log(activity)", "setting": "[24]", "value": 2.91}, {"measurement": "log(activity)", "setting": "[25]", "value": 4.22}, {"measurement": "Activity", "setting": "[26]", "value": "Active"}, {"measurement": "Activity", "setting": "[27]", "value": 0.19, "unit": "%"}, {"measurement": "Activity", "setting": "[28]", "value": -0.56, "unit": "%"}, {"measurement": "Activity", "setting": "[29]", "value": 1.32, "unit": "%"}, {"measurement": "Activity", "setting": "[30]", "value": 71.58, "unit": "%"}]}]}
